Converted amounts (≈) assume the structure as drawn. “Also recorded” adds a separate entry of the source. Read-outs that look alike come from different tables or passages of the source.
Key:
Saccharomyces cerevisiae [1] = assay: agar well diffusion assay, S. cerevisiae; format: cell-based; settings: from edge of agar well
Protocol: (§1) Both qualitative and quantitative screens were performed. Qualitative screening was accomplished using the agar well diffusion assay technque while quantitative screening was accomplished by the two-fold (broth) serial dilution method to determine the minimum inhibitory concentration (MIC). Innoculation was accomplished with one loop-full of a 1:10 dilution of the 24-hour-old broth culture, (fungal cultures and M.smegmatis more often required 48 to 72 hours of incubation) of the test organisms in sterile water. Streptomycin sulfate was used as a positive control for antibacterial activity while amphitericin B was used as an antifungal positive control. Organisms utilized in the screens included gram-positive, gram-negative, and acid-fast bacteria as well as different types of fungi. […] An intermediate type activity is seen where R is hydrogen. However, where R is lengthened up to C15 a decrease in activity was noted. Total saturation of the two double bonds in the compounds having a methyl side chain lead, in most cases, to an increase in both antifungal and antibacterial activity.

Candida albicans = assay: agar well diffusion assay, C. albicans; format: cell-based; settings: from edge of agar well
Protocol: as §1

Aspergillus niger = assay: agar well diffusion assay, A. niger; format: cell-based; settings: from edge of agar well
Protocol: as §1

[2] = test system: carrageenan-induced rat paw edema; assay: carrageenan-induced rat paw edema test, oral gavage; format: in vivo; parameters: key to mean difference in volume (MDV): ml; post-injection minus pre-injection mean paw volume; settings: for inhibition at 120 mg/kg / inhibition at 240 mg/kg / inhibition at 480 mg/kg: Rattus norvegicus, po, Table 5; for inhibition at 120 mg/kg: read-out: inhibition of carrageenan-induced rat paw edema
Protocol: In the Rat Paw Edema Test, the rats utilized were divided into test groups of six to eight animals, weighed and marked so that individual rats could be identified; one hour before testing all rats were given a 700 mg/kg intraperitoneal injection of ethyl urethane in distilled water to render them tractable during testing. […] Negative control groups received the vehicle; while positive control groups received a dose of phenylbutazone (PBZ) as shown in Table II. Test compounds were given at doses of 60, 120, 240 and 480 mg/kg. The positive controls were given at 120 mg/kg and 60 mg/kg. Phenylbutazone was prepared for injection by suspending it in normal saline using Tween 60. The rats were then held in group cages for 30 minutes. The volume of the left hind paw was measured using a mercury displacement pleysmograph. The paw is dipped into the mercury until the mercury touches the line above the ankle. Mercury is then withdrawn until the mercury returns to its original level. The amount of mercury removed is measured in milliliters (ml). The mercury can be measured accurately to 0.01 ml. This left hind paw was then injected with 0.1 ml of a 5% w/v solution of viscous carageenan in normal saline. The injection was given between the metatarsal bones using a 27 gauge needle, and the rats then held in group cages for 3 hours. The volume of the left hind paws was measured again in the pleysmograph. The results were computed in the following manner:
a. A mean is taken for both the pre-injection and post-injection paw volume of each test group.
b. The mean difference in volume (MDV) for each test group is computed by subtracting the pre-injection means from the post-injection mean.
c. The percent of control is computed for each test [formula] The percent of control is used to compare the efficacy of the various drug treatments.
d. The percent increase in paw volume is calculated for each group as: [formula] The percent increase is used to compare the amount of edma observed in one experiment to the amount of edma observed in other experiments.
[…] The test was conducted twice, once with nonfasted rats and once with rats that had been fasted during the 24 hour period prior to dosing. The 60 mg/kg phenylbutazone control group was not used in the test with fasted animals. Tween 60 in normal saline was the vehicle control for the non-fasted rats and normal saline was the vehicle control for the fasted rats.

Staphylococcus aureus = assay: MIC, two-fold (broth) serial dilution, S. aureus; format: cell-based; settings: Staphylococcus aureus, read-out: MIC
Outline: (§2)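 Agar well diffusion gave qualitative activity, and two-fold broth serial dilution gave MIC. Inoculum was one loop of a 1:10 dilution of 24-h broth culture; fungi and M. smegmatis often needed 48–72 h incubation. Streptomycin sulfate and amphotericin B served as antibacterial and antifungal controls.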

Saccharomyces cerevisiae [3] = assay: MIC, two-fold (broth) serial dilution, S. cerevisiae; format: cell-based
Outline: as §2

[4] = test system: Trichophyton mentagrophytes; assay: agar well diffusion assay, T. mentagrophytes; format: cell-based; settings: one entry across 48 hr and 72 hr
Protocol: as §1

[5] = G.C. analysis of CBC in the hemolysis test solution; format: physicochemical
Protocol: It was apparent that not all the CBC actually went into suspension. In order to determine if some of the CBC adhered to the wall of the glassware a 10 ml aliquot of the 2×10^-4 (solution a) of CBC saturated with NaCl was extracted with CHCl3 and analyzed by G.C. […] The flask was rinshed with ethanol and the washings analyzed by G.C. and found to contain 1.355 mg of CBC. The remaining 1.475 mg (50%) of CBC that could not be accounted for by G.C. analysis may have been lost during the extraction procedure or while adjusting the pH of the test solution. If the 1.475 mg CBC which could not be accounted for was actually in suspension then the maximum final concentration of CBC used in the highest CBC test level would be […] or one half the amount listed in Table 6. […] The actual activity of CBC may have been 3 to 30 times more protective of red cell membranes than an equivalent amount of PBZ.

Escherichia coli = assay: agar well diffusion assay, E. coli; format: cell-based; settings: from edge of agar well
Protocol: as §1

Bacillus subtilis = assay: MIC, two-fold (broth) serial dilution, B. subtilis; format: cell-based; settings: Bacillus subtilis, read-out: MIC
Outline: as §2

[6] = Table 6, 120 mg/kg oral, non-fasted rats
[7] = Table 6, 240 mg/kg oral, non-fasted rats
[8] = Table 6, 480 mg/kg oral, non-fasted rats
[9] = Table 7, 120 mg/kg oral, fasted rats, doses approximate
[10] = Table 7, 240 mg/kg oral, fasted rats, doses approximate
[11] = Table 7, 480 mg/kg oral (given following saline infusion), fasted rats, doses approximate

CCCCCc1cc(O)c2c(c1)OC(C)(CCC=C(C)C)C=C2 (stereo not shown) [CBC (I), 2-methyl-2(4'methyl-pent-3'-enyl)-5-hydroxy-7-pentyl chromene]
width of inhibition zone (Saccharomyces cerevisiae [1]; 48 hr): 8. mm
width of inhibition zone (Saccharomyces cerevisiae [1]; 72 hr): 8. mm
width of inhibition zone (Candida albicans; 48 hr): 4.0 mm
width of inhibition zone (Candida albicans; 72 hr): 4.0 mm
width of inhibition zone (Aspergillus niger; 48 hr): 2. mm
width of inhibition zone (Aspergillus niger; 72 hr): 2. mm
inhibition at 120 mg/kg ([2]; 120 mg/kg oral, fasted rats, N.S.): 35%
inhibition at 120 mg/kg ([2]; 120 mg/kg oral, nonfasted rats): 21%
inhibition at 240 mg/kg ([2]; 240 mg/kg oral, fasted rats, * P = 0.01): 67%
inhibition at 240 mg/kg ([2]; 240 mg/kg oral, nonfasted rats, ** P = 0.05): 34%
inhibition at 480 mg/kg ([2]; 480 mg/kg oral, fasted rats, ** P = 0.05): 55%
inhibition at 480 mg/kg ([2]; 480 mg/kg oral, nonfasted rats, * P = 0.01): 50%
mean difference in volume (MDV) [2, 6]: 0.496
percent increase in paw volume [2, 6]: 41.311%
percent of control [2, 6]: 79.400%
mean difference in volume (MDV) [2, 7]: 0.412
percent increase in paw volume [2, 7]: 38.372%
percent of control [2, 7]: 66.000%
mean difference in volume (MDV) [2, 8]: 0.315
percent increase in paw volume [2, 8]: 29.200%
percent of control [2, 8]: 50.400%
mean difference in volume (MDV) [2, 9]: 0.409
percent increase in paw volume [2, 9]: 31.382%
percent of control [2, 9]: 65.400%
mean difference in volume (MDV) [2, 10]: 0.209
percent increase in paw volume [2, 10]: 15.981%
percent of control [2, 10]: 53.400%
mean difference in volume (MDV) [2, 11]: 0.281
percent increase in paw volume [2, 11]: 22.321%
percent of control [2, 11]: 45.000%
antiinflammatory activity compared with PBZ in words ([2]; oral, listed as CBC): about equally effective at 120 mg/kg in the fasted rats; also recorded: generally more effective in inhibiting edema than was PBZ
MIC (Staphylococcus aureus; 24 h): 1.56 µg/mL (≈ 4.96 µM)
MIC (Staphylococcus aureus; 48 h): 1.56 µg/mL (≈ 4.96 µM)
MIC (Saccharomyces cerevisiae [3]; 48 hr): 25.0 µg/mL (≈ 79.5 µM)
MIC (Saccharomyces cerevisiae [3]; 72 hr): 50.0 µg/mL (≈ 159 µM)
MIC (Saccharomyces cerevisiae [3]; Saccharomyces cerevisiae, 48 h, read-out: MIC): 25 µg/mL (≈ 79.5 µM)
MIC (Saccharomyces cerevisiae [3]; Saccharomyces cerevisiae, 72 h, read-out: MIC): 50 µg/mL (≈ 159 µM)
agar well diffusion result in words [4]: No growth
amount of original CBC found in solution ([5]; 10 ml aliquot, G.C.): 0.3 mg
amount of CBC found in ethanol washings of the flask ([5]; G.C.): 1.355 mg
maximum final concentration of CBC in the highest CBC test level ([5]; if unaccounted CBC was in suspension): 50 µM
concentration of CBC found in test solution a ([5]; nominal 2×10^-4, saturated with NaCl, extracted with CHCl3, G.C.): 20 µM
width of inhibition zone (Escherichia coli; 24 hr): 5. mm
width of inhibition zone (Escherichia coli; 48 hr): 5. mm
MIC (Bacillus subtilis; 24 h): 0.39 µg/mL (≈ 1.24 µM)
MIC (Bacillus subtilis; 48 h): 0.78 µg/mL (≈ 2.48 µM)
